Data published in patent publication EP2951180B1, “2,6,7,8 SUBSTITUTED PURINES AS HDM2 INHIBITORS” (Merck Sharp & Dohme Corp., priority 2013, dated 2014).
Read-outs that look alike come from different tables or passages of the source.

Target: T1, HDM2 (Homo sapiens, UniProt Q00987)
T1 construct: Thioredoxin (N); made in house; host or cells: E. coli strain BL21(DE3)Rosetta
Assay: HDM2 FRET assay (inhibition of binding of FITC labeled p53-pocket peptide to HDM2)
Conditions: for IC50: read-out: FRET IC50
Procedure, shortened: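 TR-FRET with 0.5 nM His-tagged recombinant HDM2, 3 nM FITC-labelled p53 peptide and 0.25 nM Tb-anti-His antibody in PBS, 0.01% BSA, 0.01% Tween-20, 0.1% DMSO. IC50 from em520/em495 ratio over 10-point dilutions, 4-parameter logistic fit.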

[1] = 0.5 nM HDM2 (residues 17 to 125), 3nM peptide, two hour incubation at room temperature

T1 sequence (Q00987 17-125): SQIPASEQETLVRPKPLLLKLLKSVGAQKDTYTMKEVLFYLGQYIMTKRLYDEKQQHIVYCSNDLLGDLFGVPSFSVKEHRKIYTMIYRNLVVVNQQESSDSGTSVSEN

Cc1cccc(-c2nc3nc(C(=O)O)nc(NC4CCCCC4C)c3n2Cc2ccc(C(F)(F)F)cc2)c1 (stereo not shown) [Example 6.8, 6-[(2-methylcyclohexyl)amino]-8-(3-methylphenyl)-7-[4-(trifluoromethyl)benzyl]-7H-purine-2-carboxylic acid]
IC50 (Table 6): 228 nM

C[C@@H](Nc1nc(-c2noc(=O)[nH]2)nc2nc(C3=CCCCC3)n(C[C@H]3CC[C@H](C)CC3)c12)C1CCC1 [Example 21.37, 3-(6-{[(1R)-1-cyclobutylethyl]amino}-8-cyclohex-1-en-1-yl-7-[(trans-4-methylcyclohexyl)methyl]-7H-purin-2-yl)-1,2,4-oxadiazol-5(4H)-one]
IC50 (Table 21): 3.79 nM

CC(C)COC(C)c1nc2nc(C(=O)O)nc(N[C@H](C)C3CCC3)c2n1Cc1ccc(C(F)(F)F)cc1 (stereo partly drawn) [Example 10.5, 6-(((R)-1-cyclobutylethyl)amino)-8-(1-isobutoxyethyl)-7-(4-(trifluoromethyl)benzyl)-7H-purine-2-carboxylic acid]
IC50 (Table 10): 39.4 nM

C[C@@H](Nc1nc(-c2noc(=O)[nH]2)nc2nc([S+]([O-])c3ccccc3)n(C[C@H]3CC[C@H](C)CC3)c12)C1CCC1 (stereo partly drawn) [Example 19.2, 3-[6-{[(1R)-1-cyclobutylethyl]amino}-7-[(trans-4-methylcyclohexyl)methyl]-8-(phenylsulfinyl)-7H-purin-2-yl]-1,2,4-oxadiazol-5(4H)-one]
IC50 (Table 19): 1.77 nM

C[C@@H](Nc1nc(C(=O)O)nc2nc(C(=O)NCC3CC3)n(Cc3ccc(C(F)(F)F)cc3)c12)C1CCC1 [Example 10.17, (R)-6-((1-Cyclobutylethyl)amino)-8-((cyclopropylmethyl)carbamoyl)-7-(4-(trifluoromethyl)benzyl)-7H-purine-2-carboxylic acid]
IC50 (Table 10): 67.7 nM

C[C@@H](Nc1nc(-c2noc(=O)[nH]2)nc2nc(N(C)C3CCCCC3)n(Cc3ccc(C(F)(F)F)cc3)c12)C1CCC1 [Example 9.87, 3-(6-{[(1R)-1-cyclobutylethyl]amino}-8-[cyclohexyl(methyl)amino]-7-[4-(trifluoromethyl)benzyl]-7H-purin-2-yl)-1,2,4-oxadiazol-5(4H)-one]
IC50 (Table 9): 23.4 nM

Cc1cccc(-c2nc3nc(C(=O)O)nc(N[C@H](C)C4CC4)c3n2Cc2ccc(F)c(Cl)c2)c1 [Example 6.15, 7-(3-chloro-4-fluorobenzyl)-6-{[(1R)-1-cyclopropylethyl]amino}-8-(3-methylphenyl)-7H-purine-2-carboxylic acid]
IC50 (Table 6): 371 nM

CC[C@H](C)Nc1nc(C(=O)O)nc2nc(-c3cccc(C)c3)n(Cc3ccc(C(F)(F)F)cc3)c12 [Example 6.61, 8-(3-methylphenyl)-6-{[(1S)-1-methylpropyl]amino}-7-[4-(trifluoromethyl)benzyl]-7H-purine-2-carboxylic acid]
inhibition at 1 µM (read-out: inh. at 1000 nM (FRET)): 41%

C[C@@H](Nc1nc(-c2noc(=O)[nH]2)nc2nc(CC(C)(C)C)n(C[C@H]3CC[C@H](C)CC3)c12)C1CCC1 [Example 20.7, 3-(6-{[(1R)-1-cyclobutylethyl]amino}-8-(2,2-dimethylpropyl)-7-[(trans-4-methylcyclohexyl)methyl]-7H-purin-2-yl)-1,2,4-oxadiazol-5(4H)-one]
IC50 (Table 20): 20.9 nM

C[C@@H](Nc1nc(-c2noc(=O)[nH]2)nc2nc(C3(O)CCC3)n(C[C@H]3CC[C@H](C)CC3)c12)C1CCC1 [Example 22.67, 3-(6-{[(1R)-1-cyclobutylethyl]amino}-8-(1-hydroxycyclobutyl)-7-[(trans-4-methylcyclohexyl)methyl] -7H-purin-2-yl)-1,2,4-oxadiazol-5(2H)-one]
IC50 (Table 22): 19.3 nM

CC(C)c1ccnc(-c2nc3nc(C(=O)O)nc(N[C@H](C)C4CCC4)c3n2C[C@H]2CC[C@H](C)CC2)c1 [Example 15.15, 6-{[(1R)-1-cyclobutylethyl]amino}-7-[(trans-4-methylcyclohexyl)methyl]-8-[4-(1-methylethyl)pyridin-2-yl]-7H-purine-2-carboxylic acid]
IC50 [1]: 2.55 nM

CC[C@@H]1COCCN1c1nc2nc(-c3n[nH]c(=O)o3)nc(-c3cccc(Cl)c3)c2n1C[C@H]1CC[C@H](C)CC1 [Example 16.58, 5-{6-(3-chlorophenyl)-8-[(3R)-3-ethylmorpholin-4-yl]-7-[(trans-4-methylcyclohexyl)methyl]-7H-purin-2-yl}-1,3,4-oxadiazol-2(3H)-one]
IC50 [1]: 21.4 nM

Cc1nc(C(C)(F)c2nc3nc(-c4noc(=O)[nH]4)nc(N[C@H](C)C4CCC4)c3n2C[C@H]2CC[C@H](C)CC2)c(C)s1 (single isomer, unassigned) [Example 22.75]
IC50 (Table 22): 5.48 nM

C[C@@H]1COC[C@@H](C)N1c1nc2nc(-c3n[nH]c(=O)o3)nc(-c3cncc(Cl)c3)c2n1C[C@H]1CC[C@H](C)CC1 [Example 16.105, 5-{6-(5-chloropyridin-3-yl)-8-[(3R,5R)-3,5-dimethylmorpholin-4-yl]-7-[(trans-4-methylcyclohexyl)methyl]-7H-purin-2-yl}-1,3,4-oxadiazol-2(3H)-one]
IC50 [1]: 11 nM

CC(c1ccccc1)c1nc2nc(-c3noc(=O)[nH]3)nc(N[C@H](C)C3CCC3)c2n1C[C@H]1CC[C@H](C)CC1 (single isomer, unassigned) [Example 21.14]
IC50 (Table 21): 19.8 nM

CC(C)[C@@H]1COCCN1c1nc2nc(-c3n[nH]c(=O)o3)nc(-c3cccc(Cl)c3)c2n1C[C@H]1CC[C@H](C)CC1 [Example 16.75, 5-{6-(3-chlorophenyl)-7-[(trans-4-methylcyclohexyl)methyl]-8-[(3R)-3-(1-methylethyl)morpholin-4-yl]-7H-purin-2-yl}-1,3,4-oxadiazol-2(3H)-one]
IC50 [1]: 14.7 nM

C[C@@H](Nc1nc(-c2noc(=O)[nH]2)nc2nc(C(C)(O)c3cscn3)n(C[C@H]3CC[C@H](C)CC3)c12)C1CCC1 (stereo partly drawn) [Example 22.52, 3-(6-{[(1R)-1-cyclobutylethyl]amino}-8-[1-hydroxy-1-(1,3-thiazol-4-yl)ethyl]-7-[(trans-4-methylcyclohexyl)methyl] -7H-purin-2-yl)-1,2,4-oxadiazol-5(4H)-one]
IC50 (Table 22): 1.85 nM

C[C@@H](Nc1nc(-c2n[nH]c(=O)o2)nc2nc(N3CCO[C@H]4CCCC[C@H]43)n(C[C@H]3CC[C@H](C)CC3)c12)C1CCC1 (single isomer, unassigned) [Example 11.161]
IC50 (Table 11): 29.5 nM

CC[C@H](Nc1nc2nc(-c3noc(=O)[nH]3)nc(-c3cccc(Cl)c3)c2n1C[C@H]1CC[C@H](C)CC1)c1ccccc1 [Example 16.50, 3-[6-(3-chlorophenyl)-7-[(trans-4-methylcyclohexyl)methyl]-8-{[(1S)-1-phenylpropyl]amino} -7H-purin-2-yl]-1,2,4-oxadiazol-5(4H)-one]
IC50 [1]: 2.67 nM

CC[C@@H]1[C@@H](C)OCCN1c1nc2nc(-c3n[nH]c(=O)o3)nc(-c3cncc(Cl)c3)c2n1C[C@H]1CC[C@H](C)CC1 [Example 16.153, 5-{6-(5-chloropyridin-3-yl)-8-[(2R,3R)-3-ethyl-2-methylmorpholin-4-yl]-7-[(trans-4-methylcyclohexyl)methyl]-7H-purin-2-yl}-1,3,4-oxadiazol-2(3H)-one]
IC50 [1]: 10 nM

CC[C@@H]1COCCN1c1nc2nc(-c3noc(=O)[nH]3)nc(-c3cccc(Cl)c3)c2n1C(C)[C@H]1CC[C@H](C)CC1 (single isomer, unassigned) [Example 18.50]
IC50 (Table 18): 7.04 nM

C[C@@H](Nc1nc(C(=O)O)nc2nc(N3CCOC[C@H]3c3ccccc3)n(C[C@H]3CC[C@H](C)CC3)c12)C(F)(F)F [Example 11.51, 7-[(trans-4-methylcyclohexyl)methyl]-8-[(3R)-3-phenylmorpholin-4-yl]-6-{[(1R)-2,2,2-trifluoro-1-methylethyl]amino}-7H-purine-2-carboxylic acid]
IC50 (Table 11): 2.26 nM

C[C@@H](Nc1nc(C(=O)NS(=O)(=O)N(C)C)nc2nc(N3CCOC[C@H]3c3ccccc3)n(C[C@H]3CC[C@H](C)CC3)c12)C1CCC1 [Example 12.24, 6-{[(1R)-1-cyclobutylethyl]amino}-N-(dimethylsulfamoyl)-7-[(trans-4-methylcyclohexyl)methyl]-8-[(3R)-3-phenylmorpholin-4-yl]-7H-purine-2-carboxamide]
IC50 [1]: 1.41 nM

CC(C)c1cc(-c2nc3nc(-c4noc(=O)[nH]4)nc(N[C@H](C)C4CCC4)c3n2C[C@H]2CC[C@H](C)CC2)ncc1F [Example 15.10, 3-(6-(((R)-1-cyclobutylethyl)amino)-8-(5-fluoro-4-isopropylpyridin-2-yl)-7-((trans-4-methylcyclohexyl)methyl)-7H-purin-2-yl)-1,2,4-oxadiazol-5(4H)-one]
IC50 [1]: 11.8 nM

C[C@@H](Nc1nc(-c2nnn(C)n2)nc2nc(N3CCOC[C@H]3c3ccccc3)n(C[C@H]3CC[C@H](C)CC3)c12)C1CCC1 [Example 12.11, N-[(1R)-1-cyclobutylethyl]-7-[(trans-4-methylcyclohexyl)methyl]-2-(2-methyl-2H-tetrazol-5-yl)-8-[(3R)-3-phenylmorpholin-4-yl]-7H-purin-6-amine]
IC50 [1]: 32.5 nM

C[C@@H](Nc1nc(-c2noc(=O)[nH]2)nc2nc(N3CCCCC3Cc3ccccc3)n(Cc3ccc(C(F)(F)F)cc3)c12)C1CCC1 (stereo partly drawn) [Example 9.109, 3-{8-(2-benzylpiperidin-1-yl)-6-{[(1R)-1-cyclobutylethyl]amino}-7-[4-(trifluoromethyl)benzyl]-7H-purin-2-yl}-1,2,4-oxadiazol-5(4H)-one]
IC50 (Table 9): 59.9 nM

CC(=O)c1nc(N[C@H](C)C2CCC2)c2c(n1)nc(-c1cc(C(C)C)ccn1)n2C[C@H]1CC[C@H](C)CC1 [Example 12.5, 1-(6-{[(1R)-1-cyclobutylethyl]amino}-7-[(trans-4-methylcyclohexyl)methyl]-8-[4-(propan-2-yl)pyridin-2-yl]-7H-purin-2-yl)ethanone]
IC50 [1]: 471 nM

C[C@@H](Nc1nc(-c2noc(=O)[nH]2)nc2nc(N3CCCC3C[S+](C)[O-])n(C[C@H]3CC[C@H](C)CC3)c12)C1CCC1 (single isomer, unassigned) [Example 11.155]
IC50 (Table 11): 165 nM
